Three molecules from ChEMBL document CHEMBL1154550, “Isolation of psammaplin A 11'-sulfate and bisaprasin 11'-sulfate from the marine sponge Aplysinella rhax” (J Nat Prod, 2000) can be followed below.

Active and inactive are the calls of the source. The calls are words filed in the database; no cut-off is given here.

One assay deals with T1, Adenosine receptor A1 (Rattus norvegicus, UniProt P25099).
T1 sequence (P25099 whole entry): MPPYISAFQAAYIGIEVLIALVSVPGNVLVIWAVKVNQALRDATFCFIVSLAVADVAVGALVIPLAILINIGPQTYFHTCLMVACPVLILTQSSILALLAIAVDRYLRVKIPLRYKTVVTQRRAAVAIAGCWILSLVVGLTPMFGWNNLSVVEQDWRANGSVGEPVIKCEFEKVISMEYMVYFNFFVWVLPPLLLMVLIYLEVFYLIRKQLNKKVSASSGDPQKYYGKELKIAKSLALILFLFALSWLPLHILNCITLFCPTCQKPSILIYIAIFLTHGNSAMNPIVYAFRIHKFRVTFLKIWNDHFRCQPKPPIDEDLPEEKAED
In words: Displacement of […] from adenosine A1 receptor in rat brain. It is filed as tissue-based.

The target in assay [1] is T2, Adenosine receptor A1 (Rattus norvegicus) (UniProt P25099).
T2 sequence (whole entry): T1 sequence (P25099 whole entry)
Nature of the assay: Displacement of […] from adenosine A1 receptor in rat brain up to 2.2 mM. The format is tissue-based.

With `O=C(NCCSSCCNC(=O)/C(Cc1ccc(OS(=O)(=O)O)c(Br)c1)=N/O)/C(Cc1ccc(O)c(Br)c1)=N/O`, the IC50 at Adenosine receptor A1 was determined as 90 µM.

With `O=C(NCCSSCCNC(=O)/C(Cc1cc(Br)c(O)c(-c2cc(C/C(=N\O)C(=O)NCCSSCCNC(=O)/C(Cc3ccc(OS(=O)(=O)O)c(Br)c3)=N/O)cc(Br)c2O)c1)=N/O)/C(Cc1ccc(O)c(Br)c1)=N/O`, in assay [1], the result was inactive.

With `O=C(NCCSSCCNC(=O)/C(Cc1ccc(O)c(Br)c1)=N/O)/C(Cc1ccc(O)c(Br)c1)=N/O` [PSAMMAPLIN A], on Adenosine receptor A1, the IC50 was 20 µM.
